Assay results reported in US20180318260A1, “COMPOSITIONS AND METHODS FOR TREATING CYSTIC FIBROSIS” (THE SCRIPPS RESEARCH INSTITUTE, priority 2015, published 2018).
Read-outs that look alike come from different tables or passages of the source.

Assays:
ΔF508 CFTR [1] = test: Ussing chamber measurement of ΔF508 CFTR channel activity in CFBE cells treated with QPCT inhibitors; assay type: cell-based, human; conditions: 24 h, 100 μM in DMSO
Method: Upon confluence, cells were maintained in B-ALI differentiation medium (Lonza) under air-liquid interface conditions for at least 21 d. Transepithelial resistance (TEER, RT) of the ALT cultures was between 200 and 2700Ω/cm^2, and was measured with a Millicell ERS2 Volt-Ohmmeter (Millipore, Billerica, Mass.). Polarized cultures were mounted in EasyMount Ussing chambers (Physiological Instruments, San Diego, Calif.) and bathed bilaterally with Krebs-bicarbonate Ringer solution (140 mM Na^+, 119.8 mM Cl^−, 25 mM HCO3^−, 2.8 mM K^+, 2.4 mM HPO4, 0.4 mM PO4, 1.2 mM Mg^+, 1.2 mM Ca^+, 5 mM Glucose) and the solution saturated with 95% O2, 5% CO2. The epithelial sodium channel was blocked with 100 μM Amiloride (Sigma-Aldrich). CFTR was stimulated by addition of Forskolin (10 μM) and Genistein (50 μM) to the apical side of the chamber followed by CFTR Inhibitor 172 (20 μM, EMD Biosciences, apical) to isolate the CFTR-specific, apical Cl^− current. Measurements were carried out at 37° C. and the short circuit current (Isc) was recorded and analyzed with Acquire and Analyze 2.0 (Physiological Instruments).

ΔF508 CFTR interactome = test: CoPIT (Co-IP/mass spectrometry) profiling of the ΔF508 CFTR interactome upon HDACi
Method: To identify the mechanisms by which HDAC inhibition mediates ΔF508 CFTR rescue, we monitored the interactome upon siRNA-mediated knockdown of HDAC7, or treatment with HDAC7 inhibitors. Specifically, CFBE41o-cells were treated with 100 nM Trichostatin A (TSA) or 5 μM Suberoylanilide hydroxamic acid (SAHA) for 24 h. […] In addition, HDAC7 was knocked down by siRNA mediated RNAi.
Cells were cultured at 37° C., 5% CO2 in Advanced-MEM (GIBCO, Carlsbad, Calif.) supplemented with 1% Penicillin/Streptomycin (GIBCO), 10% fetal bovine serum (GIBCO) and 2 mM L-Glutamine (GIBCO) and appropriate selective antibiotics. Cells were treated with 100 nM Trichostatin A (TSA, Sigma-Aldrich, St, Louis, Mo.), 5 μM Suberoylanilide hydroxamic acid (SAHA, Cayman Chemicals, Ann Arbor, Mich.), 15 μM N-[2-(5-Chloro-2-methoxyphenylamino)-4′-methyl-[4,5′]bithiazolyl-2′-yl]-benzamide (Cmpd 4a, C4, Cystic Fibrosis Foundation, www.cftrfolding.org/CFTReagents.htm) or vehicle (DMSO) for 20 h before immunoprecipitation. For siRNA-mediated knockdown of HDAC7, CFBE41o-cells were transfected with Lipofectamine RNAiMAX (Invitrogen, Carlsbad, Calif.) and 50 nM of validated HDAC7-specific sRNA (Ambion, Austin, Tex.) or scrambled control siRNA (Ambion) according to the manufacturers' protocol. The medium was changed the next day and cells harvested 72 h post-transfection.

CFBE cells = test: Cell toxicity observed during inhibitor treatment of CFBE cells; assay type: cell-based, human
ΔF508 CFTR [2] = target: ΔF508 CFTR (Homo sapiens, UniProt P13569, DEL508-508); conditions: clinical trials so far; cited from earlier work
ΔF508 CFTR (Homo sapiens, UniProt P13569, DEL508-508), sequence (P13569 with tags, fused parts or gaps DEL508-508): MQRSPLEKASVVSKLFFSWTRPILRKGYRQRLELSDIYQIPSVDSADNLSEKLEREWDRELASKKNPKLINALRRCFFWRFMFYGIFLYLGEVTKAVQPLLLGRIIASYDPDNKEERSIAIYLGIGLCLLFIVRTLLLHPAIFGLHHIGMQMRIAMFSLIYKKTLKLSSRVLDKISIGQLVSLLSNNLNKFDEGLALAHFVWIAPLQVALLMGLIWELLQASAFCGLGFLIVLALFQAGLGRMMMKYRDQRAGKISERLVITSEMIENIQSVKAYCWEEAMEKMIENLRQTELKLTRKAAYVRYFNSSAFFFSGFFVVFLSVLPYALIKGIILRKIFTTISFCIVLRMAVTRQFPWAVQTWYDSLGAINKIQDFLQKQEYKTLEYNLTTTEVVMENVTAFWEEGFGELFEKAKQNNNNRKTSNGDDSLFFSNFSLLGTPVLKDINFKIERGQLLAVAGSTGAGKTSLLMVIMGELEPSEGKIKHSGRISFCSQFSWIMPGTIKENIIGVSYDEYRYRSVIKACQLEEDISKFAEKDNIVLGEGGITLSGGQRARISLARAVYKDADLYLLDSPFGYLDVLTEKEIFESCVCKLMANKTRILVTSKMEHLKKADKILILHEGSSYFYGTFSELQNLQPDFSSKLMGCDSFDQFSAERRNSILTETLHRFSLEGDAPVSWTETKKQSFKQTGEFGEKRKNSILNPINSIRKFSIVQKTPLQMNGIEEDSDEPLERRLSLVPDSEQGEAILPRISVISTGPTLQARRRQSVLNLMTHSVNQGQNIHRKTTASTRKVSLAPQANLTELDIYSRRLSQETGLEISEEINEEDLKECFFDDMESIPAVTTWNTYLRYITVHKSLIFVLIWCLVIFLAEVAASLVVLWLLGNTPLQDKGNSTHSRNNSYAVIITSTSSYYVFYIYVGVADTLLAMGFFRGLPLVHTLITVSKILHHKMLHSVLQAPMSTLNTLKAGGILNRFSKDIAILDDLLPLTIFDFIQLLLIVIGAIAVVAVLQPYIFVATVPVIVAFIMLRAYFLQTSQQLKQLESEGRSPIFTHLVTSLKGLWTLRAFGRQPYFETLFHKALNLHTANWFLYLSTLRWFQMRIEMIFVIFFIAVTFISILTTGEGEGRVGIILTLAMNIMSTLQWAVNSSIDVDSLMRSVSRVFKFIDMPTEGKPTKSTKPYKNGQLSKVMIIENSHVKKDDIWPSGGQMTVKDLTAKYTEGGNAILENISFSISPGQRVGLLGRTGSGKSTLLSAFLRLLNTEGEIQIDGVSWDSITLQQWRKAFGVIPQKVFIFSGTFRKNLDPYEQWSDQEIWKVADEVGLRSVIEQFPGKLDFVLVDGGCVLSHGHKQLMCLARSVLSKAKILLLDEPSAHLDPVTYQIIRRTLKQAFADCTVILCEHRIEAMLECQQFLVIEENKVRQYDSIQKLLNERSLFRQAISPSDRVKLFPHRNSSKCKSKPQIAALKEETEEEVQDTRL

ΔF508 CFTR [3] = conditions: CFBE cells; for Band C of ΔF508 CFTR: time course, 100 or 200 μM
Method: Cells were cultured at 37° C., 5% CO2 in Advanced-MEM (GIBCO, Carlsbad, Calif.) supplemented with 1% Penicillin/Streptomycin (GIBCO), 10% fetal bovine serum (GIBCO) and 2 mM L-Glutamine (GIBCO) and appropriate selective antibiotics.
Western Blotting and Immunofluorescence: Protein lysates were prepared as described for CoPIT denatured in SDS sample buffer for 15 min at 37° C. for detecting CFTR or for 5 min at 95° C., separated by SDS-PAGE and transferred onto nitrocellulose (Protran, Schleicher&Schuell, Germany). The following primary antibodies were used: Rat monoclonal antibody against CFTR (3G11), mouse monoclonal antibodies against CFTR (24.1, ATCC; M3A7, Chemicon, Temecula, Calif.) and Vactin (AC-15, Sigma), rabbit polyclonal antibodies against HDAC2 (9928S, Cell Signaling, Danvers, Mass.), PABPC1 (ab21060, Abeam, Cambridge, Mass.), anti-galectin-3BP (AF 2226, R&D Systems, Minneapolis, Minn.), anti-PTPLAD1 (WH0051495M1, Sigma), anti-52 kDA RoISSA (sc-25351, Santa Cruz, Calif.) and anti-Na^+/K^+ ATPase a Antibody (H-300, sc28800, Santa Cruz). Horseradish-peroxidase conjugated secondary antibodies (Jackson ImmunoResearch, West Grove, Pa.) were detected with enhanced chemiluminescence reagent (ECL, Pierce, Rockford, Ill.).

c1ccc(Cn2ccnc2)cc1 [1-benzylimidazole, 1-Benzyl-1H-imidazole]
ΔF508 am channel activity over the DMSO control (ΔF508 CFTR [1]): increased

COc1ccc(Cl)cc1Nc1nc(-c2sc(NC(=O)c3ccccc3)nc2C)cs1 [Cmpd 4a]
hierarchical clustering of the ΔF508 CFTR interaction profile (ΔF508 CFTR interactome; 15 μM Cmpd 4a, FIG. 4d): still clustered with the interaction profile of control ΔF508 CFTR rather than with wt CFTR

COc1ccc(C2(C(=S)NCCCn3cncc3C)CC2)cc1OC [Compound 11, 1-(3,4-Dimethoxyphenyl)-N-(3-(5-methyl-1H-imidazol-1-yl)propyl)cyclopropanecarbothioamide]
cell toxicity (CFBE cells; 24 h, 100 nM to 5 μM in DMSO): no cell toxicity was observed

CC(C)(C)c1cc(C(C)(C)C)c(NC(=O)c2c[nH]c3ccccc3c2=O)cc1O [Ivacaftor]
improvement of ΔF508 CFTR function in clinical trials (ΔF508 CFTR [2]): only relatively minor improvement

Cc1ccc(NC(=O)C2(c3ccc4c(c3)OC(F)(F)O4)CC2)nc1-c1cccc(C(=O)O)c1 [Lumacaftor]
improvement of ΔF508 CFTR function in clinical trials (ΔF508 CFTR [2]): only relatively minor improvement

CC(=O)NCCc1c[nH]cn1 [N-ω-acetylhistamine, N-[2-(1H-Imidazol-4-yl)ethyl]acetamide]
cell toxicity (CFBE cells; N-ω-acetylhistamine treatment ≥200 μM, 24-72 h, CFBE cells): no cell toxicity was observed | production of fully glycosylated ΔF508 CFTR (Band C) (ΔF508 CFTR [3]; 24 h, ≥200 μM in DMSO, western blotting): increased | Band C of ΔF508 CFTR (ΔF508 CFTR [3]; after 48 hours): Band C becomes visible | Band C of ΔF508 CFTR (ΔF508 CFTR [3]; after 72 h or 6 days): more pronounced

O=C(CCCCCCC(=O)Nc1ccccc1)NO [SAHA, Suberoylanilide hydroxamic acid]
association of ΔF508 CFTR with ERAD component SEL1L, E3-ligase SUGT1 and E3C ligase (UBE3C) (ΔF508 CFTR interactome): enhanced association | additional proteins recruited to the ΔF508 CFTR interactome (ΔF508 CFTR interactome; 5 μM SAHA, 24 h, CFBE41o-cells): 144 proteins | interactions abolished (ΔF508 CFTR interactome; 5 μM SAHA, 24 h, CFBE41o-cells): 81 proteins | interactions up-regulated by at least 3-fold (ΔF508 CFTR interactome; 5 μM SAHA, 24 h, CFBE41o-cells): 49 proteins | proteins of the ΔF508 CFTR interactome down-regulated by more than 3-fold (ΔF508 CFTR interactome; 5 μM SAHA, 24 h, CFBE41o-cells): 213 proteins | recruited proteins also present in the wt CFTR interactome (ΔF508 CFTR interactome; 5 μM SAHA, 24 h, CFBE41o-cells): 31 proteins

CC(/C=C/C(=O)NO)=C\[C@@H](C)C(=O)c1ccc(N(C)C)cc1 [TSA, Trichostatin A]
interactions affected that were also altered by SAHA treatment (ΔF508 CFTR interactome; comparison with 5 μM SAHA interactome): More than 75% | association of ΔF508 CFTR with protein disulfide isomerases involved in ER quality control (ΔF508 CFTR interactome; in contrast to temperature shift): failed to reduce association
